Source: US12721801B2, “Compositions and methods relating to stimulation of hyaluronic acid” (Alastin Skincare, Inc., priority 2020, dated 2026)

Legend:
[1] = Preparation of compound stocks in DMSO (dissolution observed); format: physicochemical
Method: (§1) Compounds. Stocks of compounds 1 through 8 on the list below were prepared in PBS at 100× the concentration indicated in red type. […] This stock was 100× of final concentration. A 20 mg/ml stock of compound 10 (CBD) was prepared in DMSO. […] This stock was 200× of final concentration.

[2] = system: human fibroblast cells; test: HA production assessment, SDS-PAGE of fibroblast supernatants; format: cell-based; settings: Experiment 2, primary adult human dermal fibroblasts, 72 hours, octapeptide 100 ug/mL, SymDecanox 250 ug/mL, others 500 ug/mL, FIG. 6
Method: In a second experiment, HA production was also assessed with the test compounds below. Briefly, primary adult human dermal fibroblast cells were cultured until near confluent in 6 well plates. The cells were treated with the compounds and concentrations indicated to the right. After 72 hours, 100 μL of media were collected from each treatment condition and was concentrated in a SpeedVac concentrator to a final volume of ~10 uL.
All 10 μL of the supernatants were loaded onto an acrylamide gel (NuPAGE 4-12% Bis-Tris Protein Gel) and run at 200V for 3 hours. The gel was stained to detect the presence of HA. Data is seen in FIG. 6. […] Lane 11 is the negative control, representing the untreated cells. This band represents the cells constitutive level of HA. Treating the cells with all the indicated compounds (lanes 1-10) produced an increased level of high molecular weight HA. […]

[3] = system: Hyaluronic Acid Synthase 2 (HAS2); test: Gene expression study (RNA sequencing), HAS2 expression in keratinocytes; format: cell-based; settings: human keratinocytes, 24 hours of compound exposure, FIG. 2
Method: (§2) Cell Lines. Human adult dermal fibroblast and keratinocyte cell lines were treated with 11 different compound treatments (plus DMSO control as treatment #12). Primary fibroblasts, keratinocytes sourced from ZenBio. Primary cells were plated in cell specific media at 5K or 10K cells per cm^2 as per ZenBio instructions. Cells were plated in 48 well plates (Greiner) in triplicate, one cell line per plate. Media volume was 500 ul per well. Outer two columns of wells were not used. All rows were used. Cells were cultured for 2 days in 37° C. 5% CO2 incubator. After 48 hours all the cell cultures were uniform and appeared healthy, no appreciable number of floating dead cells or evidence of vacuolization of cells that might indicate apoptotic or dying cells.
as §1
(§3) Dosing. After 48 hours of attachment culture, fibroblasts and keratinocytes were treated with the test compounds. […]
(§4) RNA Lysate preparation. […] All samples were shipped frozen on dry ice to MedGenome for RNA extraction, library construction and sequencing to 25M paired end 100 bp reads per sample. […]

[4] = system: Hyaluronidase 2 (HYAL2); test: Gene expression study (RNA sequencing), HYAL2 expression in keratinocytes; format: cell-based; settings: human keratinocytes, 24 hours of compound exposure, FIG. 3
Method: as §2, §1, §3, §4

Molecule: C=C(C)[C@@H]1CCC(C)=C[C@H]1c1c(O)cc(CCCCC)cc1O [CBD]
- Dissolution of stock in DMSO ([1]; 20 mg/ml stock in DMSO): slightly cloudy

Molecule: CCCCCCCC(=O)CCc1ccc(O)c(OC)c1 [SymDecanox™, hydroxymethoxyphenyl decanone]
- Level of high molecular weight HA (band on gel) [2]: secrete high molecular weight HA

Molecule: Hexapeptide-11: hexapeptide test agent; FVAPFP (SEQ ID NO: 19) is printed as a hexapeptide sequence, not tied explicitly
- HAS2 expression in keratinocytes [3]: excellent upregulation
- Hyaluronidase 2 (HYAL2) expression in keratinocytes [4]: potent downregulation

Molecule: phosphatidylserine
- Level of high molecular weight HA (band on gel) [2]: secrete high molecular weight HA
- Dissolution of stock in DMSO ([1]; 50 mg/ml stock in DMSO, extensive vortexing and warming): did not fully go into solution

Molecule: tetradecyl-diaminobutyroylvalyldiaminobutyric urea trifluoroacetate [SynHycan]
- Level of high molecular weight HA (band on gel) [2]: secrete high molecular weight HA
